Experimental data published in patent US10905122B2, “Use of tetrazolinones for combating resistant phytopathogenic fungi on cereals” (BASF SE, priority 2016, dated 2021).

Columns and labels:
Assay type in all cases: cell-based
[1] = system: sensitive isolate of Septoria tritici; experiment: Microtiter test against leaf blotch on wheat, sensitive isolate of Septoria tritici; conditions: 63 ppm, absorption at 405 nm 7 days after inoculation, 18° C.
Method: (§1) Compound I according to the present invention is formulated separately as a stock solution having a concentration of 10000 ppm in dimethyl sulfoxide.
(§2) The stock solution of compound I according to the present invention was mixed according to the ratio, pipetted onto a micro titer plate and diluted with water to the stated concentrations. A spore suspension of a sensitive and a QOI resistant isolate of Septoria tritici in an aqueous biomalt or yeast-bactopeptone-glycerine solution was then added. The plates were placed in a water vapor-saturated chamber at a temperature of 18° C. Using an absorption photometer, the MTPs were measured at 405 nm 7 days after the inoculation.
(§3) Compound I according to the present invention and compound 1-213 from prior art (WO2013/092224) were formulated separately as a stock solution having a concentration of 10000 ppm in dimethyl sulfoxide. The stock solutions of compound I according to the present invention and compound 1-213 from prior art (WO2013/092224) were mixed according to the ratio, pipetted onto a micro titer plate and diluted with water to the stated concentrations. A spore suspension of a sensitive and a QOI resistant isolate of Septoria tritici in an aqueous biomalt or yeast-bactopeptone-glycerine solution was then added. […] Using an absorption photometer, the MTPs were measured at 405 nm 7 days after the inoculation.

[2] = system: QOI resistant isolate of Pyrenophora teres; experiment: Microtiter test against net blotch, QOI resistant isolate of Pyrenophora teres; conditions: Example 1B; 63 ppm; absorption at 405 nm 7 days after inoculation; 18° C.
Excerpt: as §1
(§4) The stock solution of compound I according to the present invention was mixed according to the ratio, pipetted onto a micro titer plate (MTP) and diluted with water to the stated concentrations. A spore suspension of a sensitive and a QOI resistant isolate of Pyrenophora teres in an aqueous biomalt or yeast-bactopeptone-glycerine solution was then added. The plates were placed in a water vapor-saturated chamber at a temperature of 18° C. Using an absorption photometer, the MTPs were measured at 405 nm 7 days after the inoculation.

[3] = system: QOI resistant isolate of Septoria tritici; experiment: Microtiter test against leaf blotch on wheat, QOI resistant isolate of Septoria tritici; conditions: 63 ppm, absorption at 405 nm 7 days after inoculation, 18° C.
Method: as §1, §2, §3

[4] = system: sensitive isolate of Pyrenophora teres; experiment: Microtiter test against net blotch, sensitive isolate of Pyrenophora teres; conditions: Example 1B; 63 ppm; absorption at 405 nm 7 days after inoculation; 18° C.
Excerpt: as §1, §4

Question: For Cc1cccc(-n2nnn(C)c2=O)c1COc1ccn(-c2ccc(Cl)cc2)n1 [compound I, 1-[2-[[1-(4-chlorophenyl)pyrazol-3-yl]oxymethyl]-3-methyl-phenyl]-4-methyl-tetrazol-5-one], which “Growth (%) sensitive isolate of Septoria tritici” value ([1]; Example 1A) is on record?
Answer: 0%

Question: And the “Growth (%) sensitive isolate of Septoria tritici” value ([1]; Example 2 comparative)?
Answer: 0%

Question: And the “Growth (%) QOI resistant isolate of Pyrenophora teres” value [2]?
Answer: 6%

Question: And the “Growth (%) QOI resistant isolate of Septoria tritici” value ([3]; Example 1A)?
Answer: 3%

Question: And the “Growth (%) QOI resistant isolate of Septoria tritici” value ([3]; Example 2 comparative)?
Answer: 3%

Question: What about the “Growth (%) sensitive isolate of Pyrenophora teres.” value [4] of the same compound?
Answer: 6%
